{"source": "paper PMC10551445", "about": "“Piperlongumine is a ligand for the orphan nuclear receptor 4A1 (NR4A1)” (Frontiers in Pharmacology, 2023)", "biological_target": "orphan nuclear receptor 4A1 (NR4A1) (Homo sapiens, UniProt P22736)", "sequence (P22736 360-598 limits assumed)": "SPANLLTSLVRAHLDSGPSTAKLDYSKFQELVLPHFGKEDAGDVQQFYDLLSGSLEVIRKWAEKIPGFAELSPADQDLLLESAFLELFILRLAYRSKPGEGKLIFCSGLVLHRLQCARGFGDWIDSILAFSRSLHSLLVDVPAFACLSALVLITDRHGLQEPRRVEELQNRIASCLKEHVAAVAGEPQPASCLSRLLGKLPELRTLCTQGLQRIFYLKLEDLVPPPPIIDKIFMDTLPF", "test": "ITC with the NR4A1 LBD; also Trp fluorescence quenching (KD […]) and GAL4-NR4A1 reporter assay", "assay_type": "binding"}
{"smiles": "COc1cc(/C=C/C(=O)N2CCC=CC2=O)cc(OC)c1OC", "note": "[piperlongumine]", "values": [{"measurement": "Kd", "value": 4.97, "unit": "µM"}]}
